Assay: Drug release from drug-containing disulfide-bond cross-linked hyaluronic acid hydrogel into phosphate buffer solution
Type: physicochemical
Conditions: 37° C., 100 rpm; for Cumulative release percentage of the drug: hydrogel 10 mg/ml hyaluronic acid, degree of mercapto-modification 3.97%
Experimental: In the preparation process of the disulfide-bond cross-linked hyaluronic acid hydrogel of Example 6 (having a concentration of hyaluronic acid of 10 mg/ml and a degree of mercapto-modification of 3.97%), 0.1-10 mg cortical hormones (e.g. Beclomethasone, Beclomethasone dipropionate, Budesonide, Dexamethasone, Prednisolone, and Prednisone) were added respectively to make the cortical hormones uniformly dispersed in the prepared cross-linked hydrogel.
10 ml phosphate buffer solution was added to 0.2 ml of the above drug-containing cross-linked hydrogel placed into a 15 ml plastic centrifugal tube. Then centrifugal tube was placed in a shaker (37° C., 100 rpm), and the ultraviolet absorption of the drugs in the supernatant was measured at regular intervals. The measurement wavelengths were as follows: Beclomethasone 246 nm, Beclomethasone dipropionate 240 nm, Budesonide 248 nm, Dexamethasone 242 nm, Prednisolone 248 nm, and Prednisone 244 nm.

Row | Structure (SMILES) | Release behaviour from the hydrogel (in words) | Cumulative release percentage of the drug (7 days) | Cumulative release percentage of the drug (14 days) | Cumulative release percentage of the drug (21 days)
1 | C[C@]12C=CC(=O)C=C1CC[C@@H]1[C@@H]2[C@@H](O)C[C@@]2(C)[C@H]1CC[C@]2(O)C(=O)CO [Prednisolone] | released basically completely in 7 days | 95% | 100% | 100%
2 | CCC(=O)OCC(=O)[C@@]1(OC(=O)CC)[C@@H](C)C[C@H]2[C@@H]3CCC4=CC(=O)C=C[C@]4(C)[C@@]3(Cl)[C@@H](O)C[C@@]21C [Beclomethasone dipropionate] | release was rarely detected | <1% | <1% | <1%
3 | C[C@H]1C[C@H]2[C@@H]3CCC4=CC(=O)C=C[C@]4(C)[C@@]3(Cl)[C@@H](O)C[C@]2(C)[C@@]1(O)C(=O)CO [Beclomethasone] | – | 68% | 87% | 94%
4 | C[C@]12C=CC(=O)C=C1CC[C@@H]1[C@@H]2C(=O)C[C@@]2(C)[C@H]1CC[C@]2(O)C(=O)CO [Prednisone] | – | 86% | 99% | 100%

Reference: patent publication US10064889B2, “Mercapto-modified biocompatible macromolecule derivatives with low degree of mercapto-modification and the cross-linked materials and uses thereof” (Bioregen Biomedical (Changzhou) Co., Ltd., priority 2010, dated 2018)
